Results taken from the NIST ThermoML archive (doi:10.1021/je200150r).

Assay: xn = mol fraction of the nth substance listed
Details: 101 kPa, Liquid; for viscosity: Capillary tube (Ostwald / Ubbelohde) method; for mass density: Pycnometric method

OCc1ccccc1 [benzenemethanol] + CCC(C)=O
Details	mass density, 303.15 K [kg/m3]	mass density, 308.15 K [kg/m3]	mass density, 313.15 K [kg/m3]	mass density, 318.15 K [kg/m3]	mass density, 323.15 K [kg/m3]	viscosity, 303.15 K [mPa·s]	viscosity, 308.15 K [mPa·s]	viscosity, 313.15 K [mPa·s]	viscosity, 318.15 K [mPa·s]	viscosity, 323.15 K [mPa·s]
x1 = 0.1003	825.4	820.4	815.4	810.4	805.3	0.446	0.424	0.403	0.385	0.368
x1 = 0.2	854.7	849.9	845.1	840.3	835.5	0.554	0.524	0.497	0.472	0.451
x1 = 0.301	882.5	877.8	873	868.3	863.6	0.697	0.655	0.616	0.582	0.551
x1 = 0.3991	907.5	903	898.4	893.9	889.3	0.876	0.818	0.765	0.718	0.676
x1 = 0.5001	932.6	928.2	923.8	919.4	915	1.131	1.046	0.97	0.904	0.845
x1 = 0.6	956.3	952	947.8	943.6	939.3	1.476	1.351	1.242	1.146	1.063
x1 = 0.7008	978.2	974.1	969.9	965.8	961.7	1.947	1.761	1.599	1.461	1.341
x1 = 0.8001	998.5	994.6	990.5	985.6	982.7	2.586	2.307	2.063	1.866	1.694
x1 = 0.8997	1018.1	1014.3	1010.4	1006.5	1002.7	3.452	3.033	2.682	2.391	2.144
x1 = 1	1037.6	1033.8	1030.1	1026.3	1022.5	4.689	4.058	3.531	3.103	2.747
